Tests used:
[1] = target: T1, Mitogen-activated protein kinase 12 (Homo sapiens) (UniProt P53778); experiment: Inhibition of full length human p38-gamma expressed in bacterial system assessed as remaining enzyme activity at 1 uM by KINOMEScan assay relative to control
T1 sequence (whole entry): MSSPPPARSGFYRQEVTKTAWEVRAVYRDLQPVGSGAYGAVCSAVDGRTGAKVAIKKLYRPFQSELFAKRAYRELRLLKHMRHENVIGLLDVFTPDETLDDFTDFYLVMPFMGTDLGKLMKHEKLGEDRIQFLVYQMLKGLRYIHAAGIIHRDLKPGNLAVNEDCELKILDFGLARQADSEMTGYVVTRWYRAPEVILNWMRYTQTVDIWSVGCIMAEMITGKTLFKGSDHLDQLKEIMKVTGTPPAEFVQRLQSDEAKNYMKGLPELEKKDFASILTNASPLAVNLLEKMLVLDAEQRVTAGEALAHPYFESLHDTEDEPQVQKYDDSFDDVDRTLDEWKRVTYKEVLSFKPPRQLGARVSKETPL

[2] = target: Dual specificity tyrosine-phosphorylation-regulated kinase 1A (Homo sapiens) (UniProt Q13627); experiment: Inhibition of human DYRK1A (129 to 509 residues) expressed in mammalian system assessed as remaining enzyme activity at 1 uM by KINOMEScan assay relative to control
KMS-12-BM [3] = experiment: Antitumor activity against human KMS-12-BM cells xenografted in po dosed SCID-bg mouse assessed as tumor growth inhibition administered once daily measured twice per week; type: functional, organism-based
KMS-12-BM [4] = experiment: Antitumor activity against human KMS-12-BM cells xenografted in SCID-bg mouse assessed as tumor growth inhibition at 50 mg/kg, po qd measured twice per week; type: functional; conditions: read-out: TGI
Mus musculus [5] = experiment: In vivo inhibition of pan Pim in SCID-bg mouse xenografted with human KMS-12-BM cells assessed as phosphorylation of BAD peptide at Serine 112 residue at 10 mg/kg, po qd measured at 1 hr post dose relative to control; type: functional; parameters: scale not given: the % may be the effect or the level left
Mus musculus [6] = experiment: In vivo inhibition of pan Pim in SCID-bg mouse xenografted with human KMS-12-BM cells assessed as phosphorylation of BAD peptide at Serine 112 residue at 100 mg/kg, po qd measured at 4 hrs post dose relative to control; type: functional; parameters: scale not given: the % may be the effect or the level left
Mus musculus [7] = experiment: In vivo inhibition of pan Pim in SCID-bg mouse xenografted with human KMS-12-BM cells assessed as phosphorylation of BAD peptide at Serine 112 residue at 50 mg/kg, po qd measured at 8 hrs post dose relative to control; type: functional; parameters: scale not given: the % may be the effect or the level left
Mus musculus [8] = experiment: In vivo inhibition of pan Pim in SCID-bg mouse xenografted with human KMS-12-BM cells assessed as phosphorylation of BAD peptide at Serine 112 residue at 100 mg/kg, po qd measured at 8 hrs post dose relative to control; type: functional; parameters: scale not given: the % may be the effect or the level left
Mus musculus [9] = experiment: In vivo inhibition of pan Pim in SCID-bg mouse xenografted with human KMS-12-BM cells assessed as phosphorylation of BAD peptide at Serine 112 residue at 10 mg/kg, po qd measured at 12 hrs post dose relative to control; type: functional; parameters: scale not given: the % may be the effect or the level left
Mus musculus [10] = experiment: In vivo inhibition of pan Pim in SCID-bg mouse xenografted with human KMS-12-BM cells assessed as phosphorylation of BAD peptide at Serine 112 residue at 50 mg/kg, po qd measured at 12 hrs post dose relative to control; type: functional; parameters: scale not given: the % may be the effect or the level left
Mus musculus [11] = experiment: In vivo inhibition of pan Pim in SCID-bg mouse xenografted with human KMS-12-BM cells assessed as phosphorylation of BAD peptide at Serine 112 residue at 100 mg/kg, po qd measured at 12 hrs post dose relative to control; type: functional; parameters: scale not given: the % may be the effect or the level left
Mus musculus [12] = experiment: In vivo inhibition of pan Pim in SCID-bg mouse xenografted with human KMS-12-BM cells assessed as phosphorylation of BAD peptide at Serine 112 residue at 25 mg/kg, po qd measured at 24 hrs post dose relative to control; type: functional; parameters: scale not given: the % may be the effect or the level left
Mus musculus [13] = experiment: In vivo inhibition of pan Pim in SCID-bg mouse xenografted with human KMS-12-BM cells assessed as phosphorylation of BAD peptide at Serine 112 residue at 50 mg/kg, po qd measured at 24 hrs post dose relative to control; type: functional; parameters: scale not given: the % may be the effect or the level left
Mus musculus [14] = experiment: In vivo inhibition of pan Pim in SCID-bg mouse xenografted with human KMS-12-BM cells assessed as phosphorylation of BAD peptide at Serine 112 residue at 100 mg/kg, po qd measured at 24 hrs post dose relative to control; type: functional; parameters: scale not given: the % may be the effect or the level left

C[C@H]1NC(=O)c2cc(-c3cccc4c(=O)n(C)c(NC(C)(C)C)nc34)[nH]c21
Activity [1]: 0.9%
Activity [2]: 6%
TGI (KMS-12-BM [3]): Dose-dependent effect
inhibition in vivo at 50 mg/kg (KMS-12-BM [4]): 93%
Activity (Mus musculus [5]): 52%
Activity (Mus musculus [6]): 63%
Activity (Mus musculus [7]): 85%
Activity (Mus musculus [8]): 70%
Activity (Mus musculus [9]): 34%
Activity (Mus musculus [10]): 65%
Activity (Mus musculus [11]): 66%
Activity (Mus musculus [12]): 0%
Activity (Mus musculus [13]): 10%
Activity (Mus musculus [14]): 21%
